According to patent US12338261B2 (SUMITOMO PHARMA ONCOLOGY, INC., priority 2015, dated 2025):
Like-named read-outs stand apart in the source and are kept apart here.

Legend:
[1] = Pharmacokinetic profile of alvocidib prodrugs in CD-1 mice (IV/PO)
[2] = for MTDrepeat: female SHO SCID mice, five daily doses
Procedure: Repeat dose toxicology studies were performed in female SHO SCID mice using 3 animals per treatment group. […] Body weight measurements of animals treated by oral (see FIGS. 3A-B) and intravenous (see FIG. 3C-D) dosing over the course of the 5-day repeat dosing period and subsequent 5-day observation period, along with mortality and clinical observations, were used to determine the maximum tolerated dosing schedule (MTDrepeat).

[3] = assay type: in vitro ADME, rat; conditions: for % Remaining: rat, plasma
Procedure: (§1) The plasma stability of compound IB′ was determined using plasma from four species. Results for mouse, rat, dog and human are shown in Tables 5, 6, 7 and 8 respectively. Alvocidib and flumazenil were used as controls. In mouse, rat and human plasma, compound IB′ maintained 100% stability after 5 hour incubation. In dog plasma, approximately 90% of compound IB′ remained after 5 hours.

[4] = female SHO SCID mice, single dose
Procedure: Acute studies were performed in female SHO SCID mice using three animals per treatment group. […] Body weight measurements following oral dosing (FIGS. 2A-B) and intravenous (IV) dosing (FIG. 2C-D) were used, along with mortality and clinical observations to determine the maximum tolerated acute dose (MTDacute).

[5] = Maximum tolerated acute dose in rats
Procedure: (§2) Acute (i.e. single dose) toxicology studies were performed in rats. Acute studies were performed in female Sprague Dawley rats using three animals per treatment group. […] Body weight measurements following oral dosing (see FIG. 4A), along with mortality, clinical observations, food consumption (see FIG. 4B), and complete blood counts (CBCs; see Table 12) were used to determine the maximum tolerated acute dose (MTDacute).

[6] = assay type: in vitro ADME, mouse; conditions: for % Remaining: mouse, plasma
Procedure: as §1

Dog plasma stability = assay type: in vitro ADME
Procedure: as §1

Human plasma stability = assay type: in vitro ADME
Procedure: The plasma stability of compound IB′ was determined using plasma from four species.

[7] = rat, in vivo, po
Procedure: as §2

[8] = CD-1, mouse, in vivo
[9] = rats, single oral dose 36 mg/kg

For `CN1CC[C@H](c2c(O)cc(O)c3c(=O)cc(-c4ccccc4Cl)oc23)[C@H](OC(=O)C(C)(C)C)C1` [E], the “conversion to alvocidib in vivo (alvocidib detected in plasma samples)” value [1] was “did not convert to alvocidib in vivo”.

For `CN1CC[C@H](c2c(O)cc(O)c3c(=O)cc(-c4ccccc4Cl)oc23)[C@H](O)C1` [Alvocidib], the MTDrepeat ([2]; dosed intravenously) was 7.5 mg/kg, the MTDrepeat ([2]; dosed orally) was 7.5 mg/kg and the clinical observations ([2]; mouse, in vivo, 15 mg/kg) was “Lethargy, body weight loss, and deaths were observed”. For the same molecule, the “% Remaining” value ([3]; 0 h) was 100.00%, the “% Remaining” value ([3]; 0.5 h) was 93.12% and the “% Remaining” value ([3]; 1 h) was 90.20%. For the same molecule, the “% Remaining” value ([3]; 2 h) was 99.31%, the “% Remaining” value ([3]; 3 h) was 98.69% and the “% Remaining” value ([3]; 4 h) was 92.57%. It also gave an MTDacute ([4]; dosed intravenously) of 7.5 mg/kg, an MTDacute ([4]; dosed orally) of 15 mg/kg and an NOAEL ([5]; female, Sprague Dawley, rat, in vivo, po) of 9 mg/kg. For the same molecule, the “% Remaining” value ([6]; 0 h) was 100.00%, the “% Remaining” value ([6]; 0.5 h) was 93.58% and the “% Remaining” value ([6]; 1 h) was 103.12%. For the same molecule, the “% Remaining” value ([6]; 2 h) was 97.19%, the “% Remaining” value ([6]; 3 h) was 117.38% and the “% Remaining” value ([6]; 4 h) was 115.72%. For the same molecule, the “% Remaining” value (Dog plasma stability; dog plasma, 0 hours) was 100.00%, the “% Remaining” value (Dog plasma stability; dog plasma, 0.5 hours) was 96.41% and the “% Remaining” value (Dog plasma stability; dog plasma, 1 hour) was 89.16%. For the same molecule, the “% Remaining” value (Dog plasma stability; dog plasma, 2 hours) was 105.76%, the “% Remaining” value (Dog plasma stability; dog plasma, 3 hours) was 105.84% and the “% Remaining” value (Dog plasma stability; dog plasma, 4 hours) was 97.65%. The “% Remaining” value (Dog plasma stability; dog plasma, 5 hours) was 100.40%, the “% Remaining” value (Dog plasma stability; dog plasma, 5 hours, listed as alvocidib) was 100% and the “% Remaining” value (Human plasma stability; human plasma, 0 hours) was 100.00%. For the same molecule, the “% Remaining” value (Human plasma stability; human plasma, 0.5 hours) was 92.61%, the “% Remaining” value (Human plasma stability; human plasma, 1 hour) was 93.54% and the “% Remaining” value (Human plasma stability; human plasma, 2 hours) was 93.29%. The “% Remaining” value (Human plasma stability; human plasma, 3 hours) was 111.62%, the “% Remaining” value (Human plasma stability; human plasma, 4 hours) was 100.25% and the “% Remaining” value (Human plasma stability; human plasma, 5 hours) was 100%. The HCT ([7]; 4.5 mg/kg) was 43.6%, the MCH ([7]; 4.5 mg/kg) was 18.7 pg and the MCHC ([7]; 4.5 mg/kg) was 35.4 g/dL. The MCV ([7]; 4.5 mg/kg) was 52.7 fL, the PLT ([7]; 4.5 mg/kg) was 34.7 10^3/μL and the RBC ([7]; 4.5 mg/kg) was 8.3 10^6/μL. The RDWA ([7]; 4.5 mg/kg) was 16.0 fL, the WBC ([7]; 4.5 mg/kg) was 15.4 10^3/μL and the “platelet counts versus normal range” value ([7]; 4.5 mg/kg) was “outside the normal range”. The HCT ([7]; 9 mg/kg) was 47.1%, the MCH ([7]; 9 mg/kg) was 19.3 pg and the MCHC ([7]; 9 mg/kg) was 35.7 g/dL. The MCV ([7]; 9 mg/kg) was 54.0 fL, the PLT ([7]; 9 mg/kg) was 36.3 10^3/μL and the RBC ([7]; 9 mg/kg) was 8.7 10^6/μL. For the same molecule, the RDWA ([7]; 9 mg/kg) was 16.2 fL, the WBC ([7]; 9 mg/kg) was 16.8 10^3/μL and the HCT ([7]; 18 mg/kg) was 47.3%. The MCH ([7]; 18 mg/kg) was 19.3 pg, the MCHC ([7]; 18 mg/kg) was 35.9 g/dL and the MCV ([7]; 18 mg/kg) was 53.8 fL. For the same molecule, the PLT ([7]; 18 mg/kg) was 36.1 10^3/μL, the RBC ([7]; 18 mg/kg) was 8.8 10^6/μL and the RDWA ([7]; 18 mg/kg) was 16.1 fL. For the same molecule, the WBC ([7]; 18 mg/kg) was 16.9 10^3/μL, the “abnormal food consumption patterns” value ([7]; 18 mg/kg) was “abnormal food consumption patterns were observed” and the diarrhea ([7]; 18 mg/kg) was “did show signs of diarrhea”. The Bioavail. [8] was 102 ± 11.7 % F, the “AUC0-∞” value ([8]; iv, 1 mg/kg) was 517.0 ± 47.0 ng·h/mL and the AUCLast ([8]; iv, 1 mg/kg) was 498.0 ± 46.0 ng·h/mL. For the same molecule, the Clearance ([8]; iv, 1 mg/kg) was 31.7 ± 3.3 mL/min/kg, the Half life ([8]; iv, 1 mg/kg) was 2.0 ± 0.4 h and the Vd ([8]; iv, 1 mg/kg) was 5.5 ± 1.2 L/kg. The VdSS ([8]; iv, 1 mg/kg) was 3.8 ± 0.6 L/kg, the “AUC0-∞” value ([8]; po, 10 mg/kg) was 5341.1 ± 274.2 ng·h/mL and the AUCLast ([8]; po, 10 mg/kg) was 5034.1 ± 145.6 ng·h/mL. It also gave a Half life ([8]; po, 10 mg/kg) of 5.7 ± 0.7 h.

In the case of `C[N+]1(C)CC[C@H](c2c(O)cc(O)c3c(=O)cc(-c4ccccc4Cl)oc23)[C@H](O)C1` [F], the “conversion to alvocidib in vivo (alvocidib detected in plasma samples)” value [1] is reported as “did not convert to alvocidib in vivo”.

With `CN1CCC(c2c(OP(=O)(O)O)cc(O)c3c(=O)cc(-c4ccccc4Cl)oc23)C(O)C1` (stereo not drawn) [Compound IB] the MTDrepeat ([2]; dosed orally) was 7.5 mg/kg, the clinical observations [5, 9] was “Diarrhea, body weight loss and increased lethargy were observed” and the mortality [5, 9] was “one animal died on day three, one animal died on day four, and one animal died on day 5”.

In the case of `CCOC(=O)c1ncn2c1CN(C)C(=O)c1cc(F)ccc1-2` [Flumazenil], the “plasma stability (in words)” value [3] is reported as “unstable”, the “% Remaining” value ([3]; 0 h) is reported as 100.00% and the “% Remaining” value ([3]; 0.5 h) is reported as 42.23%. The “% Remaining” value ([3]; 1 h) was 16.13%, the “% Remaining” value ([3]; 2 h) was 1.69% and the “% Remaining” value ([3]; 3 h) was 0.23%. For the same molecule, the “% Remaining” value ([3]; 4 h) was 0.00%, the “% Remaining” value ([3]; 5 h) was 0.00% and the “plasma stability (in words)” value [6] was “unstable”. For the same molecule, the “% Remaining” value ([6]; 0 h) was 100.00%, the “% Remaining” value ([6]; 0.5 h) was 29.96% and the “% Remaining” value ([6]; 1 h) was 10.21%. For the same molecule, the “% Remaining” value ([6]; 2 h) was 1.56%, the “% Remaining” value ([6]; 3 h) was 0.39% and the “% Remaining” value ([6]; 4 h) was 0.20%. For the same molecule, the “% Remaining” value ([6]; 5 h) was 0.07%, the “% Remaining” value (Dog plasma stability; dog, plasma, 0 h) was 100.00% and the “% Remaining” value (Dog plasma stability; dog, plasma, 0.5 h) was 91.80%. The “% Remaining” value (Dog plasma stability; dog, plasma, 1 h) was 92.00%, the “% Remaining” value (Dog plasma stability; dog, plasma, 2 h) was 100.99% and the “% Remaining” value (Dog plasma stability; dog, plasma, 3 h) was 115.10%. The “% Remaining” value (Dog plasma stability; dog, plasma, 4 h) was 99.44%, the “% Remaining” value (Dog plasma stability; dog, plasma, 5 h) was 100.53% and the “% Remaining” value (Human plasma stability; human, plasma, 0 h) was 100.00%. For the same molecule, the “% Remaining” value (Human plasma stability; human, plasma, 0.5 h) was 96.56%, the “% Remaining” value (Human plasma stability; human, plasma, 1 h) was 90.83% and the “% Remaining” value (Human plasma stability; human, plasma, 2 h) was 92.41%. The “% Remaining” value (Human plasma stability; human, plasma, 3 h) was 117.98%, the “% Remaining” value (Human plasma stability; human, plasma, 4 h) was 95.32% and the “% Remaining” value (Human plasma stability; human, plasma, 5 h) was 94.63%.
